The kinase profiling compilation of Christmann-Franck et al. (2016)

Assays:
Experiment in all cases: Flashplate
MINK1 (human) = MINK1 (human) (UniProt Q8N4C8)
PRKG1 (human) = PRKG1 (human) (UniProt Q13976)
GSK3A (human) = GSK3A (human) (UniProt P49840)
TSSK1B (human) = TSSK1B (human) (UniProt Q9BXA7)
DCLK1 (human) = DCLK1 (human) (UniProt O15075)
MARK3 (human) = MARK3 (human) (UniProt P27448)
PRKCG (human) = PRKCG (human) (UniProt P05129)
MAPK12 (human) = MAPK12 (human) (UniProt P53778)
CSNK1G3 (human) = CSNK1G3 (human) (UniProt Q9Y6M4)
PIM3 (human) = PIM3 (human) (UniProt Q86V86)
CHEK1 (human) = CHEK1 (human) (UniProt O14757)
Chain of CHEK1 (human) (O14757 whole entry, looked up): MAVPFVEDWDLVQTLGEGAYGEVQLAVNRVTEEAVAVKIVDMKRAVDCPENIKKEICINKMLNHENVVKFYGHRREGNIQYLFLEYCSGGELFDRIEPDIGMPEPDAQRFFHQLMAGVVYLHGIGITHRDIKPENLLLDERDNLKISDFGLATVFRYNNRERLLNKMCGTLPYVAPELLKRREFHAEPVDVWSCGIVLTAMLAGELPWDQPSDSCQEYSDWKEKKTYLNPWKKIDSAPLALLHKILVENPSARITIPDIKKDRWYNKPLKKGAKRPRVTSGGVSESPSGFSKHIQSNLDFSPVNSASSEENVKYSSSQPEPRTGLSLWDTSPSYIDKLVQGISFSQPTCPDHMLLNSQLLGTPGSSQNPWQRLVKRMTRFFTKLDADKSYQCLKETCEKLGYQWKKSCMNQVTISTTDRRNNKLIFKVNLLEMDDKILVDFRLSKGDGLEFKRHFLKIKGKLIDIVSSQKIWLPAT

PRKACA (human) = PRKACA (human) (UniProt P17612)
CAMK2G (human) = CAMK2G (human) (UniProt Q13555)
PRKCZ (human) = PRKCZ (human) (UniProt Q05513)
CDC42BPA (human) = CDC42BPA (human) (UniProt Q5VT25)
AKT2 (human) = AKT2 (human) (UniProt P31751)
PLK4 (human) = PLK4 (human) (UniProt O00444)
PRKG2 (human) = PRKG2 (human) (UniProt Q13237)
RPS6KA3 KD1 KD2 (human) = RPS6KA3 KD1 KD2 (human) (UniProt P51812)
MAPK1 (human) = MAPK1 (human) (UniProt P28482)
Chain of MAPK1 (human) (P28482 whole entry, looked up): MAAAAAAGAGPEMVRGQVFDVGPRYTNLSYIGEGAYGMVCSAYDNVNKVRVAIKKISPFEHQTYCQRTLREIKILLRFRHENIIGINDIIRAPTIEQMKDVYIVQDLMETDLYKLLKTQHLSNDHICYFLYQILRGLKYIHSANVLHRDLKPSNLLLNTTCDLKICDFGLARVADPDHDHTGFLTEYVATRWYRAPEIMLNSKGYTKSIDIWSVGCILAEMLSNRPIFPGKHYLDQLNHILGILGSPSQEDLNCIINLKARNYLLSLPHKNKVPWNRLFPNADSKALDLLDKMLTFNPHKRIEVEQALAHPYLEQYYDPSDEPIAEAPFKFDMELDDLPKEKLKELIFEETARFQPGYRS

PRKCD (human) = PRKCD (human) (UniProt Q05655)
SGK1 (human) = SGK1 (human) (UniProt O00141)
Chain of SGK1 (human) (O00141 whole entry, looked up): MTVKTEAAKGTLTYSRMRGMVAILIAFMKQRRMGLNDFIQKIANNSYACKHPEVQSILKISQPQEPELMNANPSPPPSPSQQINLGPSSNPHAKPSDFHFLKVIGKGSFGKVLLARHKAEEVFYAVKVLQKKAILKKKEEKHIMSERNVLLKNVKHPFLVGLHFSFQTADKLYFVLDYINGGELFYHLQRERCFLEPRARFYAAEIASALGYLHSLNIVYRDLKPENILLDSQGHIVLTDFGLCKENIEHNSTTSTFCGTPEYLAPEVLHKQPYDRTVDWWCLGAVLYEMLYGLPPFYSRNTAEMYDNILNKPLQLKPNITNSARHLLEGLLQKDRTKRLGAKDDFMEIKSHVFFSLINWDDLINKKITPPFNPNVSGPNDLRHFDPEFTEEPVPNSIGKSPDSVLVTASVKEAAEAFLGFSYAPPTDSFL

CAMK2D (human) = CAMK2D (human) (UniProt Q13557)
Chain of CAMK2D (human) (Q13557 whole entry, looked up): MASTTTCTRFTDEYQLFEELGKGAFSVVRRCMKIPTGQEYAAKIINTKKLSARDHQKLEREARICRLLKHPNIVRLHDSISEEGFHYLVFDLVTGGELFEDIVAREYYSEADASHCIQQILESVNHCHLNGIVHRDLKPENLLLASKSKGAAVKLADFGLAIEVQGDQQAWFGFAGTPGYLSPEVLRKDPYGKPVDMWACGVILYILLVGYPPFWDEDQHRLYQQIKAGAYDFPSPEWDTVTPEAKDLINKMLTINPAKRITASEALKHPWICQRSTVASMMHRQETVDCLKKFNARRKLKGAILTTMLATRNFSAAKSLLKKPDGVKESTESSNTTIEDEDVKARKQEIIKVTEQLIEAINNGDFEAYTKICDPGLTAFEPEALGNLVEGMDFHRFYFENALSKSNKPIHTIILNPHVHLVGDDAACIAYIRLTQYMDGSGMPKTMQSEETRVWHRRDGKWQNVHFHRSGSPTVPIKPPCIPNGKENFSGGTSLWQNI

CHEK2 (human) = CHEK2 (human) (UniProt O96017)
HIPK2 (human) = HIPK2 (human) (UniProt Q9H2X6)
DAPK3 (human) = DAPK3 (human) (UniProt O43293)
DYRK1A (human) = DYRK1A (human) (UniProt Q13627)
PKN2 (human) = PKN2 (human) (UniProt Q16513)
CLK2 (human) = CLK2 (human) (UniProt P49760)
Chain of CLK2 (human) (P49760 whole entry, looked up): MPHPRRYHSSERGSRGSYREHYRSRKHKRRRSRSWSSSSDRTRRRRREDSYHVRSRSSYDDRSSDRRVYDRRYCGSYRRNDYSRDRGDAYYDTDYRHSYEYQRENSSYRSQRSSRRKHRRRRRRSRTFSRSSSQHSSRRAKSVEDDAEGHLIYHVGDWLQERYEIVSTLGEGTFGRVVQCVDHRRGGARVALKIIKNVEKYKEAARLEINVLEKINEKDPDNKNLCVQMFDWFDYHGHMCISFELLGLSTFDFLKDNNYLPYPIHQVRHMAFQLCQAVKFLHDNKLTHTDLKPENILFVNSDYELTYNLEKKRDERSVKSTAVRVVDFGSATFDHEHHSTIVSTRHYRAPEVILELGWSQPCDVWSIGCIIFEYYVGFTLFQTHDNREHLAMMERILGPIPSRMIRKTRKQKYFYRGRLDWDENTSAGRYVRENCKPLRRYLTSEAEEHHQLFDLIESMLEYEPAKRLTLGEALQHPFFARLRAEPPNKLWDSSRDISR

MAP4K4 (human) = MAP4K4 (human) (UniProt O95819)
HIPK4 (human) = HIPK4 (human) (UniProt Q8NE63)
Chain of HIPK4 (human) (Q8NE63 whole entry, looked up): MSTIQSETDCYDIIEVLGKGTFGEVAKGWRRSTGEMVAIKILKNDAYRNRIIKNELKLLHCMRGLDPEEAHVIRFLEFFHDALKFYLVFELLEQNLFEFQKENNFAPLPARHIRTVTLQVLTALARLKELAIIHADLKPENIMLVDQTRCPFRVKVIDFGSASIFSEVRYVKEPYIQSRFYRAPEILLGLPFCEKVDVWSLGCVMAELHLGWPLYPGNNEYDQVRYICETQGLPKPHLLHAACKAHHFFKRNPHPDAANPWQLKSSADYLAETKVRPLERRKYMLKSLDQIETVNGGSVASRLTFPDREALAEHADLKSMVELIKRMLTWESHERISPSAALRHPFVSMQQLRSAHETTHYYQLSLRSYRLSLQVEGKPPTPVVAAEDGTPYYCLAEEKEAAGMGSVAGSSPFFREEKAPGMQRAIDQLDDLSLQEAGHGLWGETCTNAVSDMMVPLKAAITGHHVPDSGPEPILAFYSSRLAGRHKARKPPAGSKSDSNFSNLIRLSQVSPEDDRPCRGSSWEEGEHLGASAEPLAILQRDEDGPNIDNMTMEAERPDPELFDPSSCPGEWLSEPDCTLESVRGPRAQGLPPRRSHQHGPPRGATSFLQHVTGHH

PAK4 (human) = PAK4 (human) (UniProt O96013)
Chain of PAK4 (human) (O96013 whole entry, looked up): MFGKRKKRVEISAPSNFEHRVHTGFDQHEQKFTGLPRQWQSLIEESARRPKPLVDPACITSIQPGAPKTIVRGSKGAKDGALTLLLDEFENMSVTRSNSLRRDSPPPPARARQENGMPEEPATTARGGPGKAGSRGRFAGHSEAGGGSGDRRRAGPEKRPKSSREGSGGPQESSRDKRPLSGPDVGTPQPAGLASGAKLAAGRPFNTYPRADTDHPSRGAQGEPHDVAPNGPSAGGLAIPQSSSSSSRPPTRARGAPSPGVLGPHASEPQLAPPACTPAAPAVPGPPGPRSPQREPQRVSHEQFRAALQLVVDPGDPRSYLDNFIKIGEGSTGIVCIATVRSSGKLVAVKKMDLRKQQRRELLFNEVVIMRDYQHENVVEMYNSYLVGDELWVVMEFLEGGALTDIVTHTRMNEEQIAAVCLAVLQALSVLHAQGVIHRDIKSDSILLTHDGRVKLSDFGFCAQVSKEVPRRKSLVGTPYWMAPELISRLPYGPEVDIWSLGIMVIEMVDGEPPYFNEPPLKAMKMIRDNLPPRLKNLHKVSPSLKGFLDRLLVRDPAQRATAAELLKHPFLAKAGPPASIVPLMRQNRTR

CSNK1A1 (human) = CSNK1A1 (human) (UniProt P48729)
PHKG2 (human) = PHKG2 (human) (UniProt P15735)
PRKCI (human) = PRKCI (human) (UniProt P41743)
CSNK1G2 (human) = CSNK1G2 (human) (UniProt P78368)
MAPKAPK3 (human) = MAPKAPK3 (human) (UniProt Q16644)
MKNK2 (human) = MKNK2 (human) (UniProt Q9HBH9)
TSSK2 (human) = TSSK2 (human) (UniProt Q96PF2)
Chain of TSSK2 (human) (Q96PF2 whole entry, looked up): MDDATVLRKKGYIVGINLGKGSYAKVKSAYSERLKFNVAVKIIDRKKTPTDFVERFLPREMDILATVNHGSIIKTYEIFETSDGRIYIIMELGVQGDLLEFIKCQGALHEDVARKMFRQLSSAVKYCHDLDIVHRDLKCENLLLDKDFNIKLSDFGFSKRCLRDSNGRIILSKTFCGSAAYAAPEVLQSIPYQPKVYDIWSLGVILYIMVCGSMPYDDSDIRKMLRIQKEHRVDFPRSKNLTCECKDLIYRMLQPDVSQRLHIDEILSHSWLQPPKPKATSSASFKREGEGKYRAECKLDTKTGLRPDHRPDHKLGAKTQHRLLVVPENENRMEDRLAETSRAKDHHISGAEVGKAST

MELK (human) = MELK (human) (UniProt Q14680)
CLK4 (human) = CLK4 (human) (UniProt Q9HAZ1)
Chain of CLK4 (human) (Q9HAZ1 whole entry, looked up): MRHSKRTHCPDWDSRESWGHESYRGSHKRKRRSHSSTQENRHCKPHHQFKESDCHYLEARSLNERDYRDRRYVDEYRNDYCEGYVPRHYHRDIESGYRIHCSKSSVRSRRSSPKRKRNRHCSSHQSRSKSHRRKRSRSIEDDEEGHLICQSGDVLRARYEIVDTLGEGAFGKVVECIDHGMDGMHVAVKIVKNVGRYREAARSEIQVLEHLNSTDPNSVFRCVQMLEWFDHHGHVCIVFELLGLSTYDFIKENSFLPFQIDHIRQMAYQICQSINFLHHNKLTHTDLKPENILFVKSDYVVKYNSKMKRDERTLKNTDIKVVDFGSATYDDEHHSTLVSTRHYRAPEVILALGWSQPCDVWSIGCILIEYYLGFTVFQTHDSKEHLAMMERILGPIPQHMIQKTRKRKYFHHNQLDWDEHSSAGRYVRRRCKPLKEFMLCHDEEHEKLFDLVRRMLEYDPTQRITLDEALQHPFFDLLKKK

Chain of PRKG1 (human) (Q13976 whole entry, looked up): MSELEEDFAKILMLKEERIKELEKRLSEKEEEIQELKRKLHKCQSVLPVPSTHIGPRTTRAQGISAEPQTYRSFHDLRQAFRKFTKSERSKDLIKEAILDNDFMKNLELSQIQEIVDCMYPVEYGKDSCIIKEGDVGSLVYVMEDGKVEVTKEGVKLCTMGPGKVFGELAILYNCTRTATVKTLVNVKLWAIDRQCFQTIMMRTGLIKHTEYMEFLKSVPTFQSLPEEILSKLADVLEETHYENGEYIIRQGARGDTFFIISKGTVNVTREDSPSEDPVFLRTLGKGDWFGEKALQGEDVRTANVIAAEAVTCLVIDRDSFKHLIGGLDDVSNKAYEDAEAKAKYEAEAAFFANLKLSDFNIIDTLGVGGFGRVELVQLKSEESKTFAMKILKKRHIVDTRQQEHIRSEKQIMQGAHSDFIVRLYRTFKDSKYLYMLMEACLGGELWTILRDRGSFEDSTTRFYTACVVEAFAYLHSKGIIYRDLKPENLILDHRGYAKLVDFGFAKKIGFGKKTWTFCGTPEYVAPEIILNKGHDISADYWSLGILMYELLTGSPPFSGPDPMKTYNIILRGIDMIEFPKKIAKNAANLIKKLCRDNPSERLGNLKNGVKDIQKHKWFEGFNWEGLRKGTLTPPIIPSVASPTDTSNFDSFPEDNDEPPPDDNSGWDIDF

- Ki (MINK1 (human)): 200 nM
- Ki (PRKG1 (human)): > 2000 nM
- Ki (GSK3A (human)): 1260 nM
- Ki (TSSK1B (human)): > 1580 nM
- Ki (DCLK1 (human)): > 10000 nM
- Ki (MARK3 (human)): 3.98 nM
- Ki (PRKCG (human)): 316 nM
- Ki (MAPK12 (human)): > 6310 nM
- Ki (CSNK1G3 (human)): 1000 nM
- Ki (PIM3 (human)): 200 nM
- Ki (CHEK1 (human)): 1260 nM
- Ki (PRKACA (human)): > 7940 nM
- Ki (CAMK2G (human)): 1580 nM
- Ki (PRKCZ (human)): > 7940 nM
- Ki (CDC42BPA (human)): > 10000 nM
- Ki (AKT2 (human)): > 7940 nM
- Ki (PLK4 (human)): 200 nM
- Ki (PRKG2 (human)): > 1580 nM
- Ki (RPS6KA3 KD1 KD2 (human)): 398 nM
- Ki (MAPK1 (human)): 5010 nM
- Ki (PRKCD (human)): > 7940 nM
- Ki (SGK1 (human)): 251 nM
- Ki (CAMK2D (human)): 1000 nM
- Ki (CHEK2 (human)): 501 nM
- Ki (HIPK2 (human)): 200 nM
- Ki (DAPK3 (human)): 398 nM
- Ki (DYRK1A (human)): 126 nM
- Ki (PKN2 (human)): > 7940 nM
- Ki (CLK2 (human)): 631 nM
- Ki (MAP4K4 (human)): 316 nM
- Ki (HIPK4 (human)): 2000 nM
- Ki (PAK4 (human)): > 5010 nM
- Ki (CSNK1A1 (human)): 316 nM
- Ki (PHKG2 (human)): 631 nM
- Ki (PRKCI (human)): > 5010 nM
- Ki (CSNK1G2 (human)): 2000 nM
- Ki (MAPKAPK3 (human)): > 10000 nM
- Ki (MKNK2 (human)): 316 nM
- Ki (TSSK2 (human)): > 1580 nM
- Ki (MELK (human)): 398 nM
- Ki (CLK4 (human)): 63.1 nM
Compound: O=C1c2ccccc2-c2n[nH]c3cccc1c23
